How the values were obtained:
Uromyces viciae-Fabael = assay: Uromyces viciae-fabae / field bean / leaf disc preventative (faba-bean rust); format: in vivo, Uromyces viciae-fabae on field bean; conditions: foliar, 288 h, 100 ppm in the applied formulation, inoculated two hours after application, assessed 12 days after application, vs untreated control leaf discs, read-out: disease control
Description: (§1) Leaf disks or leaf segments of various plant species are cut from plants grown in a greenhouse. The cut leaf disks or segments are placed in multiwell plates (24-well format) onto water agar. The leaf disks are sprayed with a test solution before (preventative) or after (curative) inoculation. Compounds to be tested are prepared as DMSO solutions (max. 10 mg/ml) which are diluted to the appropriate concentration with 0.025% Tween20 just before spraying. The inoculated leaf disks or segments are incubated under defined conditions (temperature, relative humidity, light, etc.) according to the respective test system. A single evaluation of disease level is carried out 3 to 14 days after inoculation, depending on the pathosystem. Percent disease control relative to the untreated check leaf disks or segments is then calculated.
Field bean leaf discs are placed on water agar in multiwell plates (96-well format) and 10 μl of the formulated test compound diluted in acetone and a spreader pipetted onto the leaf disc. Two hours after application leaf discs are inoculated by spraying a spore suspension on the lower leaf surface. The leaf discs are incubated in a climate cabinet at 22° C. with 18 hour day and 70% relative humidity. The activity of a compound is assessed as percent disease control compared to untreated when an appropriate level of disease damage appears in untreated check leaf disks (12 days after application).
The following compounds at 100 ppm in the applied formulation give at least 80% disease control in this test when compared to untreated control leaf discs under the same conditions, which show extensive disease development.

Phakopsora pachyrhizi = Phakopsora pachyrhizi / soybean / leaf disc preventative (Asian soybean rust); format: in vivo, Phakopsora pachyrhizi on soybean; conditions: foliar, 200 ppm in the applied formulation, inoculated one day after application, assessed 12 to 14 days after application, vs untreated control leaf disks, read-out: disease control
Description: as §1
Soybean leaf disks are placed on water agar in multiwell plates (24-well format) and sprayed with the formulated test compound diluted in water. One day after application leaf discs are inoculated by spraying a spore suspension on the lower leaf surface. After an incubation period in a climate cabinet of 24-36 hours in darkness at 20° C. and 75% rh leaf disc are kept at 20° C. with 12 h light/day and 75% rh. The activity of a compound is assessed as percent disease control compared to untreated when an appropriate level of disease damage appears in untreated check leaf disks (12 to 14 days after application).
(§2) The following compounds at 200 ppm in the applied formulation give at least 80% disease control in this test when compared to untreated control leaf disks under the same conditions, which show extensive disease development.

[1] = test system: Puccinia recondita f. Sp. Triticil; assay: Puccinia recondita f. sp. tritici / wheat / leaf disc curative (brown rust); format: in vivo, Puccinia recondita f. sp. tritici on wheat cv. Kanzler; conditions: foliar, 200 ppm in the applied formulation, applied 1 day after inoculation, assessed 6 to 8 days after application, vs untreated control leaf disks, read-out: disease control
Description: as §1
Wheat leaf segments cv. Kanzler are placed on agar in multiwell plates (24-well format). The leaf segments are then inoculated with a spore suspension of the fungus. Plates were stored in darkness at 19° C. and 75% relative humidity. The formulated test compound diluted in water was applied 1 day after inoculation. The leaf segments were incubated at 19° C. and 75% relative humidity under a light regime of 12 hours light/12 hours darkness in a climate cabinet and the activity of a compound was assessed as percent disease control compared to untreated when an appropriate level of disease damage appears in untreated check leaf segments (6 to 8 days after application).
as §2

[2] = test system: Glomerella Lacenarium (Colletotrichum lacenarium); assay: Glomerella lagenarium (Colletotrichum lagenarium) liquid culture / cucumber / preventative (anthracnose); format: cell-based; conditions: 20 ppm in the applied formulation, liquid culture in PDB, 24° C., inhibition of growth measured photometrically 3 to 4 days after application, vs untreated control, read-out: disease control
Outline: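 Cryostored conidia mixed into potato dextrose broth and added to DMSO compound solution in microtiter plates. Incubated at 24 °C. Growth inhibition read photometrically 3–4 days after application as percent activity versus untreated check.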

[3] = test system: Puccinia recondita f. Sp. Tritici; assay: Puccinia recondita f. sp. tritici / wheat / leaf disc preventative (brown rust); format: in vivo, Puccinia recondita f. sp. tritici on wheat cv. Kanzler; conditions: foliar, 200 ppm in the applied formulation, inoculated 1 day after application, assessed 7 to 9 days after application, vs untreated control leaf disks, read-out: disease control
Outline: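 Wheat cv. Kanzler leaf segments on agar were sprayed with compound (DMSO stock diluted with 0.025% Tween20) 1 day before inoculation with spores. Segments were held at 19 °C, 75% rh, 12 h light/dark. Percent disease control versus untreated was scored 7–9 days after application.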

O=C(NCc1ccc(-c2noc(C(F)(F)F)n2)cc1)c1ccc(Cl)cc1Cl [Compound 1.8, 2,4-dichloro-N-[[4-[5-(trifluoromethyl)-1,2,4-oxadiazol-3-yl]phenyl]methyl]benzamide]
≥ 80%: pest or weed control at 100 ppm (Uromyces viciae-Fabael)

CCC1(C(=O)NCc2ccc(-c3noc(C(F)(F)F)n3)cc2)C(C)C1(Cl)Cl (centres unmarked) [Compound 1.31, 2,2-dichloro-1-ethyl-3-methyl-N-[[4-[5-(trifluoromethyl)-1,2,4-oxadiazol-3-yl]phenyl]methyl] cyclopropanecarboxamide]
≥ 80%: pest or weed control at 100 ppm (Uromyces viciae-Fabael)

O=C(CC1CC1)NCc1ccc(-c2noc(C(F)(F)F)n2)c(F)c1F [Compound 1.73, 2-cyclopropyl-N-[[2,3-difluoro-4-[5-(trifluoromethyl)-1,2,4-oxadiazol-3-yl]phenyl]methyl]acetamide]
≥ 80%: pest or weed control at 200 ppm (Phakopsora pachyrhizi) | pest or weed control at 200 ppm [1] | inhibition of growth at 20 ppm [2] | pest or weed control at 200 ppm [3]

O=C(CC1CC1)NCc1ccc(-c2noc(C(F)(F)F)n2)c(F)c1 [Compound 1.92, 2-cyclopropyl-N-[[3-fluoro-4-[5-(trifluoromethyl)-1,2,4-oxadiazol-3-yl]phenyl]methyl]acetamide]
≥ 80%: pest or weed control at 200 ppm (Phakopsora pachyrhizi) | pest or weed control at 200 ppm [1] | inhibition of growth at 20 ppm [2] | pest or weed control at 200 ppm [3]

CC1(C(=O)NCc2ccc(-c3noc(C(F)(F)F)n3)cc2)COC1 [Compound 1.54, 3-methyl-N-[[4-[5-(trifluoromethyl)-1,2,4-oxadiazol-3-yl]phenyl]methyl] oxetane-3-carboxamide]
≥ 80%: pest or weed control at 200 ppm (Phakopsora pachyrhizi) | pest or weed control at 200 ppm [1] | inhibition of growth at 20 ppm [2] | pest or weed control at 200 ppm [3]

CC1(C(=O)NCc2ccc(-c3noc(C(F)(F)F)n3)c(F)c2)COC1 [Compound 1.69, N-[[3-fluoro-4-[5-(trifluoromethyl)-1,2,4-oxadiazol-3-yl]phenyl]methyl]-3-methyl-oxetane-3-carboxamide]
≥ 80%: pest or weed control at 200 ppm (Phakopsora pachyrhizi) | pest or weed control at 200 ppm [1] | inhibition of growth at 20 ppm [2] | pest or weed control at 200 ppm [3]

CC1(C)CC1C(=O)NCc1ccc(-c2noc(C(F)(F)F)n2)cc1 (centres unmarked) [Compound 1.28, 2,2-dimethyl-N-[[4-[5-(trifluoromethyl)-1,2,4-oxadiazol-3-yl]phenyl]methyl] cyclopropanecarboxamide]
≥ 80%: pest or weed control at 200 ppm (Phakopsora pachyrhizi) | pest or weed control at 200 ppm [1] | inhibition of growth at 20 ppm [2] | pest or weed control at 200 ppm [3]

O=C(NCc1ccc(-c2noc(C(F)(F)F)n2)cc1)C1CCC1 [Compound 1.22, N-[[4-[5-(trifluoromethyl)-1,2,4-oxadiazol-3-yl]phenyl]methyl] cyclobutanecarboxamide]
≥ 80%: pest or weed control at 200 ppm (Phakopsora pachyrhizi) | pest or weed control at 200 ppm [1] | inhibition of growth at 20 ppm [2] | pest or weed control at 200 ppm [3]

O=C(CCc1ccc(Cl)cc1)NCc1ccc(-c2noc(C(F)(F)F)n2)cc1 [Compound 1.11, 3-(4-chlorophenyl)-N-[[4-[5-(trifluoromethyl)-1,2,4-oxadiazol-3-yl]phenyl]methyl] propanamide]
≥ 80%: pest or weed control at 100 ppm (Uromyces viciae-Fabael)

CC1(C(=O)NCc2ccc(-c3noc(C(F)(F)F)n3)cc2F)CC1 [Compound 1.67, N-[[2-fluoro-4-[5-(trifluoromethyl)-1,2,4-oxadiazol-3-yl]phenyl]methyl]-1-methyl-cyclopropanecarboxamide]
≥ 80%: pest or weed control at 200 ppm (Phakopsora pachyrhizi) | pest or weed control at 200 ppm [1] | inhibition of growth at 20 ppm [2] | pest or weed control at 200 ppm [3]

CC1(C(=O)NCc2ccc(-c3noc(C(F)(F)F)n3)c(F)c2)CC1 [Compound 1.65, N-[[3-fluoro-4-[5-(trifluoromethyl)-1,2,4-oxadiazol-3-yl]phenyl]methyl]-1-methyl-cyclopropanecarboxamide]
≥ 80%: pest or weed control at 200 ppm (Phakopsora pachyrhizi) | pest or weed control at 200 ppm [1] | inhibition of growth at 20 ppm [2] | pest or weed control at 200 ppm [3]

CC1CC1C(=O)NCc1ccc(-c2noc(C(F)(F)F)n2)c(F)c1 (centres unmarked) [Compound 1.64, N-[[3-fluoro-4-[5-(trifluoromethyl)-1,2,4-oxadiazol-3-yl]phenyl]methyl]-2-methyl-cyclopropanecarboxamide]
≥ 80%: pest or weed control at 200 ppm (Phakopsora pachyrhizi) | pest or weed control at 200 ppm [1] | inhibition of growth at 20 ppm [2] | pest or weed control at 200 ppm [3]

CCOc1ccc(C2(C(=O)NCc3ccc(-c4noc(C(F)(F)F)n4)cc3)CC2(F)F)cc1 (centres unmarked) [Compound 1.35, 1-(4-ethoxyphenyl)-2,2-difluoro-N-[[4-[5-(trifluoromethyl)-1,2,4-oxadiazol-3-yl]phenyl]methyl] cyclopropanecarboxamide]
≥ 80%: pest or weed control at 100 ppm (Uromyces viciae-Fabael)

CC1CC1C(=O)NCCc1ccc(-c2noc(C(F)(F)F)n2)cc1 (centres unmarked) [Compound 1.102, 2-methyl-N-[2-[4-[5-(trifluoromethyl)-1,2,4-oxadiazol-3-yl]phenyl]ethyl] cyclopropanecarboxamide]
≥ 80%: pest or weed control at 200 ppm (Phakopsora pachyrhizi) | pest or weed control at 200 ppm [1] | inhibition of growth at 20 ppm [2] | pest or weed control at 200 ppm [3]

O=C(NCc1ccc(-c2noc(C(F)(F)F)n2)cc1)c1cccc(C(F)(F)F)c1 [Compound 1.9, 3-(trifluoromethyl)-N-[[4-[5-(trifluoromethyl)-1,2,4-oxadiazol-3-yl]phenyl]methyl]benzamide]
≥ 80%: pest or weed control at 100 ppm (Uromyces viciae-Fabael)

CC1(C(=O)NCc2ccc(-c3noc(C(F)(F)F)n3)c(F)c2F)CC1 [Compound 1.78, N-[[2,3-difluoro-4-[5-(trifluoromethyl)-1,2,4-oxadiazol-3-yl]phenyl]methyl]-1-methyl-cyclopropanecarboxamide]
≥ 80%: pest or weed control at 200 ppm (Phakopsora pachyrhizi) | pest or weed control at 200 ppm [1] | inhibition of growth at 20 ppm [2] | pest or weed control at 200 ppm [3]

O=C(NCc1ccc(-c2noc(C(F)(F)F)n2)c(F)c1F)C1CCC1 [Compound 1.75, N-[[2,3-difluoro-4-[5-(trifluoromethyl)-1,2,4-oxadiazol-3-yl]phenyl]methyl] cyclobutanecarboxamide]
≥ 80%: pest or weed control at 200 ppm (Phakopsora pachyrhizi) | pest or weed control at 200 ppm [1] | inhibition of growth at 20 ppm [2] | pest or weed control at 200 ppm [3]

O=C(NCc1ccc(-c2noc(C(F)(F)F)n2)cc1F)C1CCCO1 (centres unmarked) [Compound 1.49, N-[[2-fluoro-4-[5-(trifluoromethyl)-1,2,4-oxadiazol-3-yl]phenyl]methyl]tetrahydrofuran-2-carboxamide]
≥ 80%: pest or weed control at 200 ppm (Phakopsora pachyrhizi) | pest or weed control at 200 ppm [1] | inhibition of growth at 20 ppm [2] | pest or weed control at 200 ppm [3]

O=C(NCc1ccc(-c2noc(C(F)(F)F)n2)cc1F)C1CC1(F)F (centres unmarked) [Compound 1.61, 2,2-difluoro-N-[[2-fluoro-4-[5-(trifluoromethyl)-1,2,4-oxadiazol-3-yl]phenyl]methyl] cyclopropanecarboxamide]
≥ 80%: pest or weed control at 200 ppm (Phakopsora pachyrhizi) | pest or weed control at 200 ppm [1] | inhibition of growth at 20 ppm [2] | pest or weed control at 200 ppm [3]

CC1(C(=O)NCCc2ccc(-c3noc(C(F)(F)F)n3)cc2)COC1 [Compound 1.104, 3-methyl-N-[2-[4-[5-(trifluoromethyl)-1,2,4-oxadiazol-3-yl]phenyl]ethyl]oxetane-3-carboxamide]
≥ 80%: pest or weed control at 200 ppm (Phakopsora pachyrhizi) | pest or weed control at 200 ppm [1] | inhibition of growth at 20 ppm [2] | pest or weed control at 200 ppm [3]

— patent US20180368410A1, “MICROBIOCIDAL OXADIAZOLE DERIVATIVES” (SYNGENTA PARTICIPATIONS AG, priority 2015, published 2018)
